Assay results as given in patent US12605350B2, “Composition for preventing, ameliorating, or treating disease caused by nitration of tyrosine in proteins comprising tyrosine as effective component” (INDUSTRY-ACADEMIC COOPERATION FOUNDATION GYEONGSANG …, priority 2020, dated 2026).

How the values were obtained:
[1] = system: animal model of acute hepatic encephalopathy caused by AOM; assay: ALT in plasma, hepatic encephalopathy caused by azoxymethane; type: in vivo, mouse; settings: L-tyrosine 100 mg/kg oral once a day for 4 days, AOM 100 mg/kg i.p.
Method: C57BL/6 male mouse (13-week old, KOATECH, South Korea) was allowed to have free access to diets and water in sterile breeding room with constant temperature and humidity. The animals were divided into 3 test groups, i.e., (1) Control group (Control), (2) Carboxymethyl cellulose+azoxymethane treatment group (CMC+AOM), and (3) L-Tyrosine+AOM treatment group (L-Tyr+AOM). L-Tyrosine (100 mg/kg) was suspended in 0.5% CMC (carboxymethyl cellulose). The animal was orally administered, once a day for 4 days, with L-tyrosine or the prepared solvent CMC. Two hours after the oral administration on Day 4, intraperitoneal injection of AOM (100 mg/kg, […]) was carried out. To prevent dehydration, the animal was intraperitoneally injected with […] of physiological saline, 12 hours after the administration of AOM. Four hours after the injection, the test animal was sacrificed, blood was collected from the heart, and the liver tissues were harvested. Blood collected in the above was centrifuged for 15 minutes at 3,000 rpm to separate plasma, and ALT (alanine aminotransferase) as an index of liver cell injury was measured by using ChemiLab GPT Assay Kit (IVD-LAB, Korea). According to the standard measurement method of the kit, absorbance was measured at a wavelength of 340 nm, and then expressed in unit of U/L.

[2] = system: chronic immobilization stress group (STR); assay: ammonia amount in PFC (Ammonia assay kit); type: in vivo, mouse; settings: stress group fed tyrosine-diet
Method: PFC tissues were weighed at a temperature of not more than −20° C. to prevent them from melting. To a 1.5 ml tube, RIPA (proteinase inhibitor cocktail, containing PIC) in an amount of 100 μl per 10 mg of the tissues and suitable number of glass beads were added, and then the tissues were lysed twice for 30 seconds by using a bullet blender. Lysed tissues were spun down, transferred to a fresh 1.5 ml tube, and then subjected to tissue homogenization for 1 min by ultrasonication. After centrifuged for 15 minutes at 12,000 rpm, supernatant was transferred to a fresh 1.5 ml tube and kept at −80° C. until use. […]
To 100 μl of the ammonia assay reagent provided in the Ammonia assay kit, 10 μl of the sample diluted by a factor 2 using PBS buffer solution (i.e., corresponding to 5 μg tissues) were added and incubated for 5 minutes at room temperature. […] After 5 minutes, absorbance was measured at 340 nm by using a microreader (Ainitial).
After adding 10 μl of glutamate dehydrogenase solution and incubation for 5 minutes at room temperature, absorbance was measured at 340 nm by using a microreader (Afinal).
DA340 nm (Afinal-Ainitial) was then calculated, and DA340 nm of the blank control or DA340 nm of buffer solution blank control was excluded by subtraction for the reference and sample, respectively. […]

[3] = system: glutamine synthetase (GS); assay: GS activity, GS expression and Tyr-nitrated GS in PFC of chronic immobilization stress mice; type: in vivo, mouse
Method: Each of the blood and PFC sample was obtained from a mouse anesthetized with CO2 gas. Specifically, mouse blood was collected between 9 AM and 11 AM and stored in a K3EDTA-coated vacuum container. Plasma was obtained by centrifuge for 10 minutes at 4° C., 500×g. PFC sample was weighed first, and, after lysis of the tissues by using Bullet homogenizer, subjected to centrifuge for 20 minutes at 4° C., 12,000 rpm. Thus-obtained plasma and tissue lysate were kept at −80° C. until use.
10 μg of the lysate were admixed with […] of GS assay buffer solution (50 mM imidazole-HCl, pH 6.8, 50 mM L-glutamine, 25 mM hydroxylamine, 25 mM sodium arsenate, 2 mM MnCl2 and 0.16 mM ADP), followed by incubation for 1 hour at 37° C.
After the mixing, the reaction was terminated by adding 50 μl of stop buffer solution (90 mM FeCl3, 1.8 N HCl and 1.45% trichloroacetic acid), and then γ-glutamylhydroxamate synthesized from a reaction between glutamine and hydroxylamine as catalyzed by GS was measured at 560 nm using a microplate reader.
By using Western blot (WB) and immunoprecipitation (IP)-WB, level of GS and level of Tyr-nitrated GS were measured, respectively. […]
The animal models were divided into two groups (i.e., normal group and stress group). […] Change in bodyweight and food intake amount were measured every other day. […]

[4] = system: mouse model of chronic immobilization stress; assay: object location recognition test (OLT); type: in vivo; settings: D-Tyr-containing diet (181 mg D-Tyr/kg AIN-93G), chronic stress 14 days
Method: Twenty-eight C57BL/6 male mice (7-week old) were divided into two groups, each group provided for 1 week with a normal diet or D-tyrosine (D-Tyr)-containing diet (181 mg D-Tyr/kg AIN-93G).
Once the animals become 8-week old, they were applied with chronic immobilization stress (CIS) under light condition of 200 lux, 2 hours per day for 2 weeks. The animals were divided into the control group (CTL), D-Tyr diet control group (CTL+D-Tyr), chronic stress group (STR), and D-Tyr diet chronic stress group (STR+D-Tyr), in which each group consists of 7 animals.
Upon the completion of the CIS for 2 weeks, a cognitive function test was carried out. To compare the cognitive function between the group provided with D-Tyr-containing diet over the entire test period including habituation period and normal feed diet group, an object recognition test (ORT) and an object location recognition test (OLT) for testing long-term memory skills were carried out.
OLT: 24 Hours after carrying out ORT, location of a familiar object was changed, and the animal was allowed to explore for 5 minutes. According to the same method as the aforementioned object recognition function index (DI), ratio of time spent for exploring an object with changed location compared to the entire time for exploring an object was calculated. Accordingly, object location recognition function index was obtained.

SMILES	ALT in plasma [1]	ammonia amount in PFC [2]	GS activity in PFC ([3]; stress group, tyrosine diet (181.2 mg/kg) compared to normal diet)	amount of N-Tyr (nitrated tyrosine) in GS ([3]; tyrosine-diet group compared to stress group with normal diet, PFC)	cognitive function according to OTL (object location recognition function index) [4]
N[C@@H](Cc1ccc(O)cc1)C(=O)O [L-tyrosine]	suppressed with statistical significance				
N[C@@H](Cc1ccc(O)cc1)C(=O)O [tyrosine]		reduced to a similar level to the normal group	statistically significant increase in the GS activity	statistically significant decrease in the amount of N-Tyr	maintained at the level of the control group
